Assay [1] addresses T1, h-GABA-A α5β3γ2 (Homo sapiens (Human), UniProt P18507+P31644). The assay is described as follows: Two-electrode voltage clamp electrophysiology in Xenopus oocytes expressing GABAA receptors, modulation of GABA EC20 current. It counts as cell-based. Particulars: Xenopus oocytes; for Efficacy (GABA) %: % modulation of GABA EC20 = 100*(Fold increase−1); for Fold increase h-GABA-A α5β3γ2 oocyte: GABA EC20, test compound at approx. 30 fold its Ki. The procedure: Xenopus laevis oocytes at maturation stages V-VI were used for the expression of cloned mRNA encoding GABAA receptor subunits. Oocytes ready for RNA micro-injection were bought from Ecocyte, Castrop-Rauxel, Germany and stored in modified Barth's medium (composition in mM: NaCl 88, KCl 1, NaHCO32.4, HEPES 10, MgSO4 0.82, CaNO3 0.33, CaCl2) 0.33, pH=7.5) at 20° C. until the experiment.
Oocytes were plated in 96-well plates to be used in an automated instrument (Robo-ocyte, MultiChannelSystems, Reutlingen, Germany) for microinjection and electrophysiological recordings. Approximately 50 nl of an aqueous solution containing the RNA transcripts for the subunits of the desired GABAA receptor was injected into each oocyte. RNA concentrations ranged between 0.3 and 16 ng/μl/subunit and were adjusted in pilot experiments to obtain GABA responses of a suitable size and a maximal effect of the reference modulator, Beta-CCM (β-CCM), a betacarboline negative allosteric modulator (NAM) at the GABAA receptor benzodiazepine (BZD) binding site or Midazolam, a benzodiazepine positive allosteric modulator (PAM) at the GABAA receptor benzodiazepine (BZD) binding site. The concentration of the γ2 subunit encoding RNA usually was 5-to 10-fold higher than the RNAs encoding the other subunits. Oocytes were kept in modified Barth's medium (composition in mM: NaCl 88, KCl 1, NaHCO3 4, HEPES 10, MgSO4 0.82, CaNO3 0.33, CaCl2 0.33, pH=7.5) at 20° C. until the experiment.
Electrophysiological experiments were performed on days 3 to 5 after the micro-injection of mRNA. During the experiment the oocytes were constantly superfused by a solution containing (in mM) NaCl 90, KCl 1, HEPES 5, MgCl2 1, CaCl2 1 (pH 7.4). Oocytes were impaled by two glass microelectrodes (resistance: 0.4 MΩ) which were filled with a solution containing KCl 1M+K-acetate 1.5 M and voltage-clamped to −80 mV. The recordings were performed at room temperature using the Roboocyte two-electrode voltage clamp system (Multichannelsystem). After an initial equilibration period of 1.5 min GABA was added for 1.5 min at a concentration evoking approximately 20% of a maximal current response (EC20). After another rest interval of 2.5 min GABA was again added evoking a response of similar amplitude and shape. […] Current traces were recorded at a digitization rate of 10 Hz during and shortly before and after the GABA application.
Each compound and concentration was tested on at least 3 oocytes.
For the analysis, the digitized current traces of the first and second GABA response were superimposed and, if necessary, rescaled to equal maximal amplitudes. The ratio between the two responses during the time interval of test compound application was calculated point by point. The extremum of the resulting “ratio trace” was taken as the efficacy (“Fold increase”) of the compound expressed as “% modulation of GABA EC20” (100*(Fold increase−1)).

Assay [2] has as its target T1, h-GABA-A α5β3γ2. In words: [3H]flumazenil competition binding assay, membranes of HEK293 cells expressing human GABAA receptors. The settings on record: displacement of [3H]flumazenil 0.5 nM, HEK293 cells expressing human receptors, mean of two determinations; read-out: Ki h-GABA-A α5β3γ2. On the procedure: The affinity of compounds at GABAA receptor subtypes was measured by competition for [3H]flumazenil (85 Ci/mmol; Roche) binding to HEK293 cells expressing rat (stably transfected) or human (transiently transfected) receptors of composition α1β3γ2, α2β3γ2, α3β3γ2 and α5β3γ2.
Cell pellets were suspended in Krebs-tris buffer (4.8 mM KCl, 1.2 mM CaCl2, 1.2 mM MgCl2, 120 mM NaCl, 15 mM Tris; pH 7.5; binding assay buffer), homogenized by polytron for ca. 20 sec on ice and centrifuged for 60 min at 4° C. (50000 g; Sorvall, rotor: SM24=20000 rpm). The cell pellets were resuspended in Krebs-tris buffer and homogenized by polytron for ca. 15 sec on ice. Protein was measured (Bradford method, Bio-Rad) and aliquots of 1 mL were prepared and stored at −80° C.
Assays were incubated to equilibrium for 1 hour at 4° C. and harvested onto GF/C uni-filters (Packard) by filtration using a Packard harvester and washing with ice-cold wash buffer (50 mM Tris; pH 7.5). After drying, filter-retained radioactivity was detected by liquid scintillation counting. Ki values were calculated using Excel-Fit (Microsoft) and are the means of two determinations.

SMILES strings stand for the structures.

`Cc1ccc(-c2noc(C)c2COc2ccc(C(=O)NC3CC3)nn2)cn1` [Example 26, N-cyclopropyl-6-((5-methyl-3-(6-methylpyridin-3-yl)isoxazol-4-yl)methoxy)pyridazine-3-carboxamide]: on h-GABA-A α5β3γ2 [1], the “Efficacy (GABA) %” value is listed as 80% and the “Fold increase h-GABA-A α5β3γ2 oocyte” value was 1.8. Moreover, at h-GABA-A α5β3γ2 [2], the inhibitory constant (Ki) came out at 5.2 nM.
The like results for `Cc1onc(-c2ccc(Cl)nc2)c1COc1ccc(C(=O)NC2CCOCC2)nn1` [Example 159, 6-((3-(6-chloropyridin-3-yl)-5-methylisoxazol-4-yl)methoxy)-N-(tetrahydropyran-4-yl)pyridazine-3-carboxamide] were, in that order, 55%, 1.55 and 23.7 nM.
For `CCC[C@@H](CO)NC(=O)c1ccc(OCc2c(-c3ccc(C4CC4)nc3)noc2C)nc1` [Example 129, 6-((3-(6-cyclopropyl-3-pyridyl)-5-methyl-isoxazol-4-yl)methoxy)-N-((1S)-1-(hydroxymethyl)butyl)pyridine-3-carboxamide], in that order: 156%, 2.56 and 25.6 nM.
For `Cc1ccc(-c2noc(C)c2COc2ccc(C(=O)N[C@@H]3CCOC[C@H]3O)cn2)cn1` [Example 134, N-((3S,4R)-3-hydroxytetrahydro-2H-pyran-4-yl)-6-((5-methyl-3-(6-methylpyridin-3-yl)isoxazol-4-yl)methoxy)pyridine-3-carboxamide], in that order: 66%, 1.66 and 20.8 nM.
As to `Cc1ccc(-c2noc(C3CC3)c2COc2ccc(C(=O)NC3CC4(COC4)C3)nn2)cn1` [Example 181, 6-((5-cyclopropyl-3-(6-methylpyridin-3-yl)isoxazol-4-yl)methoxy)-N-(2-oxaspiro[3.3]heptan-6-yl)pyridazine-3-carboxamide], at h-GABA-A α5β3γ2 [1], the “Efficacy (GABA) %” value is 147% and the “Fold increase h-GABA-A α5β3γ2 oocyte” value was found to be 2.47. Besides, the Ki at h-GABA-A α5β3γ2 [2] came to 68 nM.
Turning to `Cc1ccc(-c2noc(C)c2COc2ccc(C(=O)N[C@]3(C)CCOC3)nn2)cn1` (single isomer, unassigned) [Example 82], at h-GABA-A α5β3γ2 [1], the “Efficacy (GABA) %” value was found to be 101% and the “Fold increase h-GABA-A α5β3γ2 oocyte” value worked out at 2.01. Further, at h-GABA-A α5β3γ2 [2], the Ki came to 12.4 nM.
The like results for `Cc1ccc(-c2noc(C)c2COc2ccc(C(=O)N3CC(F)C3)nn2)cn1` [Example 65, (3-fluoroazetidin-1-yl)(6-((5-methyl-3-(6-methylpyridin-3-yl)isoxazol-4-yl)methoxy)pyridazin-3-yl)methanone] were, in that order, 62%, 1.62 and 7.2 nM.
For `Cc1ccc(-c2noc(C)c2COc2ccc(C(=O)N[C@H]3C[C@H]4CC[C@H]3O4)nn2)cn1` (single isomer, unassigned) [Example 188], in that order: 71%, 1.71 and 20.7 nM.
The like results for `Cc1ccc(-c2noc(C)c2COc2ccc(C(=O)NC(C)(C)CCO)nn2)cn1` [Example 79, N-(4-hydroxy-2-methylbutan-2-yl)-6-((5-methyl-3-(6-methylpyridin-3-yl)isoxazol-4-yl)methoxy)pyridazine-3-carboxamide] were, in that order, 96%, 1.96 and 11.3 nM.
In the case of `Cc1ccc(-c2noc(C)c2COc2ccc(C(=O)N[C@@H]3CCOC[C@H]3O)nn2)cn1` [Example 28, N-((3S,4R)-3-hydroxytetrahydropyran-4-yl)-6-((5-methyl-3-(6-methylpyridin-3-yl)isoxazol-4-yl)methoxy)pyridazine-3-carboxamide], on h-GABA-A α5β3γ2 [1], the “Efficacy (GABA) %” value was 52% and the “Fold increase h-GABA-A α5β3γ2 oocyte” value is listed as 1.52. In addition, at h-GABA-A α5β3γ2 [2], the Ki was found to be 8 nM.

The Ki is the equilibrium dissociation constant of an inhibitor or competing ligand from its target.

These data come from US20240279218A1 (Hoffmann-La Roche Inc., priority 2016, published 2024).
